Results on seven molecules are retold here after article PMC7279487, “Dual Target Ligands with 4-tert-Butylphenoxy Scaffold as Histamine H3 Receptor Antagonists and Monoamine Oxidase B Inhibitors” (International Journal of Molecular Sciences, 2020).

Series [1] has as its target hH3R. The settings on record: cited from earlier work.
The subject of series [2] is AChE. Also on record: method as in PMID 28861918. As to conditions: cited from earlier work.
Series [3] deals with BuChE. Also on record: method as in PMID 28861918. As to conditions: cited from earlier work.
Series [4] deals with T1, human histamine H3 receptor (hH3R) (Homo sapiens, UniProt Q9Y5N1).
T1 construct: expressed in transfected cells
T1 sequence (Q9Y5N1 whole entry): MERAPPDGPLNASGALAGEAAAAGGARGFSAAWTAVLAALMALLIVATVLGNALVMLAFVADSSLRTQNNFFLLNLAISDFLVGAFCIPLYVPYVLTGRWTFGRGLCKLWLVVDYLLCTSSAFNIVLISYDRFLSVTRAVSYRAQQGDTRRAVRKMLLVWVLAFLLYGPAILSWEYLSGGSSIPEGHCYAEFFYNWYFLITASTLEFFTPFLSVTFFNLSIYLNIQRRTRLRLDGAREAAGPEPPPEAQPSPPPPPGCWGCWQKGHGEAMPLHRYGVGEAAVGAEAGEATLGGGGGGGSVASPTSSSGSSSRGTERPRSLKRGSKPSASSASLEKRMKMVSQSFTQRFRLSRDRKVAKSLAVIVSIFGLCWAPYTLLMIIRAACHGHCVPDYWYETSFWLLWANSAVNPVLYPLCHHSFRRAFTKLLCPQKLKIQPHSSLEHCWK
In words: radioligand displacement binding assay, [3H]Nα-methylhistamine, HEK293 cells stably expressing hH3R. As to conditions: HEK293 cells stably expressing human H3R, mean (95% CI). As for the experimental part: [^3H]N^α-methylhistamine was used as a radioligand.
The radioligand displacement binding assay was carried out in HEK-293 cells stably expressing the recombinant hH3R as described by Kottke et al. with slight modifications. […] Obtained data from at least three experiments (in at least duplicates) were analyzed with GraphPad Prism 6.1 (San Diego, CA, USA) using nonlinear regression (one-site competition on logarithmic scale), and Ki values were transformed from IC50 according to Cheng-Prusoff. Statistical analysis was performed on −log Ki values.

For series [5], the target named is T2, hMAO B (Homo sapiens, UniProt P27338).
T2 construct: purchased Sigma Aldrich M7441
T2 sequence (P27338 1-520): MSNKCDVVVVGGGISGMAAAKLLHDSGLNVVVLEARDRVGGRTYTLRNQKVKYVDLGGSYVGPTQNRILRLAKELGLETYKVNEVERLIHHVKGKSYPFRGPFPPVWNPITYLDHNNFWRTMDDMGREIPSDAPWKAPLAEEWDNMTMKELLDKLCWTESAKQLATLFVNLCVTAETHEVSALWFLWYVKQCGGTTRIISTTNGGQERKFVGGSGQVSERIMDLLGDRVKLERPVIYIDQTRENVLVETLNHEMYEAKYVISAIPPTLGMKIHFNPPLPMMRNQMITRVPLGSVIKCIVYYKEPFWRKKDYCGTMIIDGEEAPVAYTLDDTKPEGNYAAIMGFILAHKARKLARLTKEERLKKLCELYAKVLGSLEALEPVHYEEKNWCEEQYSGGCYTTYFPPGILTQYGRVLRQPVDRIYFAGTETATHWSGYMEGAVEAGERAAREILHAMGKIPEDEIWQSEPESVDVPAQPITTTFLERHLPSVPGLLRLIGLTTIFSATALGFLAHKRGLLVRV
The series is described as follows: hMAO B inhibition, fluorometric Amplex Red MAO assay. Type of series: biochemical.

For series [6], the target named is T3, human MAO A (Homo sapiens, UniProt P21397).
T3 construct: purchased Sigma Aldrich M7316
T3 sequence (P21397 1-527): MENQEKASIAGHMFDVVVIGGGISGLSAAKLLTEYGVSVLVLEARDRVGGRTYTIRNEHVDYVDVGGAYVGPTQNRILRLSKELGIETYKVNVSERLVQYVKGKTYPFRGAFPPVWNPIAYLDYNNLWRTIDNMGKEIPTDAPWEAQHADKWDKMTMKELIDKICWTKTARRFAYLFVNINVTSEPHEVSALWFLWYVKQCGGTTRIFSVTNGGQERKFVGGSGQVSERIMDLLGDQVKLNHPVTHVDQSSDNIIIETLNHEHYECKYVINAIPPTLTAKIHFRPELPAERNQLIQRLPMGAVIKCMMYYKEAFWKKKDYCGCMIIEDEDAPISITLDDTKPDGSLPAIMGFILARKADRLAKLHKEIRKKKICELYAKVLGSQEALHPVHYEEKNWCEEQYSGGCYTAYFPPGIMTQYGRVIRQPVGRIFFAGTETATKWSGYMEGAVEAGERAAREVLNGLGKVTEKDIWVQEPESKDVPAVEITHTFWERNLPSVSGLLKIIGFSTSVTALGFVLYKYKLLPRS
The series is described as follows: hMAO A inhibition, fluorometric Amplex Red MAO assay. Type of series: biochemical. As to conditions: mean ± SEM; p-tyramine 200 μM. As for the experimental part: Inhibitory potency of compounds on MAO isoenzymes were carried out by a fluorometric method with a commercial Amplex™ Red Monoamine Oxidase Assay Kit (ThermoFisher Scientific A12214, Waltham, MA, USA) as described previously. For all tests, recombinant human MAO B and MAO A (from Sigma AldrichM7441 and M7316, Darmstadt, Germany) were used. Inhibitors’ activity was measured in the presence of p-tyramine (200 μM).
[…] […] All calculations were made in Microsoft Excel and GraphPadPrism software. All experiments were performed in duplicate, and data are expressed as mean ± SEM of 2–5 independent experiments.

Series [7] addresses T2, hMAO B. The series is described as follows: hMAO B reversibility studies. The settings on record: inhibitor at IC80. Format: biochemical. On the procedure: Reversibility of MAO B inhibitors was tested as described previously with slight modification. Two experiments were performed simultaneously. In the first experiment, inhibitors (in concentrations corresponding to their IC80 values) were incubated with the enzyme and p-tyramine (10 μM) for 22 min (measuring fluorescence every two minutes).

The target in series [8] is T2, hMAO B. In words: hMAO B kinetic studies (Michaelis-Menten, Lineweaver-Burk). Type of series: biochemical. As for the experimental part:
Results from the kinetic experiment were used for determination of Michaelis–Menten curves (Figure 4A,C). […] From Michaelis–Menten curves, Vmax and KM values were fitted (Table 2). For both compounds, Vmax values decreased curvilinearly and KM values increased curvilinearly with the increased inhibitor concentrations.
The mode of the inhibition was tested according to the standard procedure described in Reversibility Studies using different concentrations of the substrate. […] Substrate was used in six concentrations: […], 0.1 mM, 0.5 mM, 1 mM, 1.5 mM, and 2 mM. After the experiment, velocities were calculated and put on the graph (y-axis) against the concentration of the substrate (x-axis). From the Michaelis–Menten plot Vmax, KM, and α values were calculated for different concentrations of the inhibitor. Double-reciprocal plot (Lineweaver–Burk plot) were prepared to display the data.
The α values for different modes of reversible inhibition as well as their diagnostic signature on […]
The α value for compound 9 was calculated by GraphPad Prism software from the nonlinear regression curves using following equation for mixed- […]
v = Vmax*[S] / [S]*(1+ [I]/ αKi) + KM*(1+ [I]/Ki) (1) v – velocity of enzyme reaction. Vmax - maximum velocity (at infinite substrate concentration); Ki – dissociation constant for Enzyme-Inhibitor complex (in the enzymology literature other symbols can be used such as: Ki, Kii , KEI etc.); αKi – dissociation constant for Enzyme-Substrate-Inhibitor complex (in the literature also under the symbols: Ki’, Kis and KES); KM – Michaelis-Menten constant; [I]– concentration of the inhibitor; [S] – concentration of the substrate [Ref S1].
Table S1. Relation between inhibition modality, α value, and diagnostic signature on the double-reciprocal plots (i.e Lineweaver-Burk plot) [S2].
α Inhibition modality Diagnostic signature on […]
α = 1 (inhibitor binds to free enzyme lines converge at the x-axis and enzyme-substrate complex
(inhibitor can bind to free lines converge to the left of the α > 1 enzyme and enzyme-substrate y-axis and above the x-axis complex unequally), inhibitor’s affinity is higher for free enzyme
(inhibitor can bind to free
α < 1 enzyme and enzyme-substrate lines converge to the left of the complex unequally), inhibitor’s y-axis and below the x-axis affinity is higher for the enzyme- […]
α → ∞ (inhibitor and substrate compete lines converge at the y-axis for the same site of binding) […]
α → 0 and α > 0 (inhibitor binds only to the parallel lines

The test system of series [9] is neuroblastoma SH-SY5Y cells. In words: neuroprotection in H2O2-treated SH-SY5Y cells (MTS). The settings on record: 50 µM; H2O2 300 µM; 24 h. Format: cell-based. As for the experimental part: (§1) The used reference cytostatic drug doxorubicin (DX) decreased cell viability <50% under the same conditions at very low concentrations of 0.2 and 0.05 µM. […] Oxidative damage was induced by very high toxic levels of hydrogen peroxide (H2O2; 300 µM), the popular cell model for PD research, in neuroblastoma SH-SY5Y cell line. […] Salsolinol (SAL) was used at a concentration of 50 µM as the reference compound with the proven neuroprotection activity.
SH-SY5Y cells were seeded in microplate at a concentration of 2.5 × 10^4 cells/well in 100 μL culture medium and cultured for 24 h at 37 C and 5% CO2 to reach 70% confluence. […] (R,S)-salsolinol (purity ≥ 99%) was obtained from Cayman Chemical (Ann Arbor, MI, USA). Next, H2O2 was added at final concentration 300 μM and the cells were placed into the incubator. After 24 h of compounds co-incubation with H2O2, the CellTiter 96®AQueous Non-Radioactive Cell Proliferation Assay (MTS) labeling mixture was added to each well, and the microplates were incubated under the same conditions for 5 h. The absorbance was measured using a microplate reader EnSpire (PerkinElmer, Waltham, MA USA) at 490 nm. All measurements were performed in triplicate, and results are shown as mean ± SD.

A short description of series [10]: toxicity in HEK-293 cells (EZ4U). Format: cell-based, human. As to conditions: human, HEK-293 cells; reference doxorubicin at 0.2 and 0.05 µM; 48 h incubation; read-out: HEK-293 cell viability. As for the experimental part:
as §1
The HEK-293 cells were seeded at a concentration of 1.5 × 10^4 cells/well in 200 μL culture medium and incubated for 24 h at 37 °C and 5% CO2. […] Then, 25 μL EZ4U labelling mixture (Biomedica, Vienna, Austria) was added and the cells were incubated for 2 h. The spectrophotometric absorbance of the samples was measured using a microplate reader (EnSpire, PerkinElmer, Waltham, MA, USA) at 492 nm. All measurements were performed in triplicate, and results are shown as mean ± SD.

Setting [11] is: concentration used in kinetic studies.

Where two headings read alike, the source gives them in different places. Bounds are passed on as bounds.

By Ki is commonly meant a dissociation constant, usually derived from enzyme kinetics or from competition with a known ligand. With `C#CCNC1CCc2cc(OCCCN3CCCCC3)ccc21` (stereo not drawn) [Compound 1], the inhibition constant Ki in series [1] (read-out: hH3R Ki) was 6.7 nM.
For `CCC(C)(C)c1ccc(OCCCN2CCCC2)cc1` [Compound 3], the Ki in series [1] (read-out: hH3R Ki) is 63 nM.
The IC50 is the concentration at which inhibition is half-maximal. As to `C#CCN(C)Cc1cc2cc(OCCCN3CCCCC3)ccc2n1C` [Contilisant], the inhibition constant (Ki) in series [1] (read-out: H3R Ki) was 11 nM. Also, the IC50 is 530 nM in series [2] and 1690 nM in [3].
Turning to `O=C1/C(=C/c2ccc(OCCCN3CCCCC3)cc2)Cc2cc(OCc3ccc(Br)cc3)ccc21` [Compound 2], the Ki in series [1] (read-out: hH3R Ki) was 6.5 nM.
In general, IC20 refers to the concentration at which the effect reaches the 20% level. A high value points to weaker potency. In general, IC80 refers to the concentration at which the effect reaches the 80% level. A low value points to greater potency. By melting point is commonly meant the temperature, or range, at which the solid turns liquid. Molecule `CC1CCCCN1CCCOc1ccc(C(C)(C)C)cc1.O=C(O)C(=O)O` (stereo not drawn) [Compound 9, 1-(3-(4-tert-Butylphenoxy)propyl)-2-methylpiperidine hydrogen oxalate] displayed a melting point of 114 to 116 °C. This molecule had a Ki in series [4] of 69 nM. Also, in series [5] (setting [11]), the 20% effect concentration (IC20) amounted to 0.2 nM and the IC80 amounted to 40 nM. The same molecule registered a concentration for half-maximal inhibition (IC50) in [5] (mean ± SEM of 2-5 independent experiments, p-tyramine 200 μM) of 11 ± 1 nM. The 50% inhibitory concentration (IC50) in series [6] is greater than 10000 nM. Moreover, the “effect of 30 min preincubation with enzyme on hMAO B inhibition” value in [7] (with vs without preincubation) is “did not show differences between experiments with and without the preincubation”. In series [7] (without preincubation, compared with safinamide and rasagiline), the “type of hMAO B inhibition (reversible or irreversible)” value was “reversible”. For the same molecule, the “constant α” value in [8] (calculated by GraphPad Prism from nonlinear regression, mixed-model inhibition) was 1.6. In addition, the “mode of hMAO B inhibition” value in series [8] (from Vmax and KM behaviour and Lineweaver-Burk plot) was “mixed mode inhibition”. For the same molecule, in [8] (inhibitor concentration 0.2 nM), the “Vmax (RFU/min)” value amounted to 1652 RFU/min. In series [8] (inhibitor concentration 10 nM), the “Vmax (RFU/min)” value was 1544 RFU/min. Also, the “Vmax (RFU/min)” value in [8] (inhibitor concentration 40 nM) is given as 1238 RFU/min.
As for `CC1NCCc2cc(O)c(O)cc21` (racemic) [SAL, (R,S)-salsolinol, reference compound], the “cell survival of H2O2-damaged SH-SY5Y cells (neuroprotection)” value in series [9] was “statistically significant increased cells viability”.
The term viability denotes a per cent measure of how many cells are alive, often set against a control. Turning to `COc1cccc2c1C(=O)c1c(O)c3c(c(O)c1C2=O)C[C@@](O)(C(=O)CO)C[C@@H]3O[C@H]1C[C@H](N)[C@H](O)[C@H](C)O1` [doxorubicin (DX), doxorubicin, reference compound], the viability at 48 h in [10] is less than 50%.
